Experimental data as given in patent US20220280661A1, “GLUCOCORTICOID RECEPTOR RADIOLIGANDS AND METHODS FOR THEIR PREPARATION AND USE” (The Regents of the University of California, priority 2019, published 2022).

Molecular target: T1, GR (Mus musculus, UniProt P06537)
T1 construct: from tissue; host or cells: tissues of C57BL6/J mice (intact or adrenalectomized), in vivo
T1 sequence (P06537 1-792): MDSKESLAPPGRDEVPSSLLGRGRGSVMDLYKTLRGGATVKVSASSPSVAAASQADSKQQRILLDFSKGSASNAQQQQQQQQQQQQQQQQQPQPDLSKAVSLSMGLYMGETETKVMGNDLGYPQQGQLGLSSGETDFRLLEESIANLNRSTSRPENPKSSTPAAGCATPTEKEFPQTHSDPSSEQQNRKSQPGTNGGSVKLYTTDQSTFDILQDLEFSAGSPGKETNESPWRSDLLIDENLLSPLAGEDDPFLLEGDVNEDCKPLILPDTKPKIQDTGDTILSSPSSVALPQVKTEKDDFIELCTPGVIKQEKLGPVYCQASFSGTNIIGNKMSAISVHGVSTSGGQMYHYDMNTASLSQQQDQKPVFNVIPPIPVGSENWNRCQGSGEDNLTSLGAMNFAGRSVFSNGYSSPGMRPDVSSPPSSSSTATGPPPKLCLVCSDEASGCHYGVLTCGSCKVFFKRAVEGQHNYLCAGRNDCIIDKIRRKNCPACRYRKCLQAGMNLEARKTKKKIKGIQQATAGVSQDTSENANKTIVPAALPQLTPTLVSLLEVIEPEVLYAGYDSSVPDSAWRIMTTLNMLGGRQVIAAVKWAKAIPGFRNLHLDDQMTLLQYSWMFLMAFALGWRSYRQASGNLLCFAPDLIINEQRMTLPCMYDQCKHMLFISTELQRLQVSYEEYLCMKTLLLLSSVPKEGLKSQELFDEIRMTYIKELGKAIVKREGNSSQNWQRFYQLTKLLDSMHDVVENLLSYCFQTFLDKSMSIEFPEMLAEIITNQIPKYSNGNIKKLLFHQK
Assay: 11C radiotracer biodistribution with dexamethasone or Dex-CD blocking
Format: in vivo
Conditions: 20 min after injection
Procedure: Animal Studies. All animal experiments were performed under the approval of the Institutional Animal Care and Use Committee (IACUC) at UCSF. C57BL6/J mice (4-6 weeks) were purchased from Charles River. All the mice were housed in a dedicated vivarium with free access to food and water. […] Adrenalectomized mice were purchased from Charles River and provided drinking water supplemented with NaCl (aq) per instructions until the time of the tracer biodistribution study.
Biodistribution Studies. Mice were euthanized after radiotracer (7.4-18.5 MBq in 100-150 μL) injection with CO2 (g) asphyxiation and dissected at dedicated time points post injection. The blood and tissues were collected, washed, dried, and weighed. The activity of each tissue was measured with a gamma counter. All data was decay corrected. PRISM software was used to express a percentage (% ID/g) of the injected dose per gram of tissue.
The P value indicates the result of an unpaired, two-tailed Student's t test between the respective treatment group and vehicle (n=5/group).
Table 10 summarizes biodistribution data collected 20 minutes after injection of ^11C-YJH02 among two treatment arms receiving vehicle or one intraperitoneal injection of the water-soluble dexamethasone-cyclodextrin complex at 10 mg/kg one hour prior to radiotracer administration. The P value indicates the result of an unpaired, two-tailed Student's t test between the respective treatment group and vehicle (n=5/group).

[1] = mice given Dex-CD 10 mg/kg intraperitoneal one hour prior to radiotracer
[2] = mice given dexamethasone 50 mg/kg via gavage once daily for three days

## CC1=CC(C)(C)Nc2ccc3c(c21)C(Cc1ccc(F)cc1)Oc1cccc(O[11CH3])c1-3 (racemic) [(±)-^11C-YJH08]
[1]
  radiotracer uptake, Adrenal: 5.67 ± 2.6 % ID/g
  radiotracer uptake, Blood: 3.72 ± 0.2 % ID/g
  radiotracer uptake, Bone: 1.95 ± 1.6 % ID/g
  radiotracer uptake, Brain: 1.40 ± 0.2 % ID/g
  radiotracer uptake, Brown Fat: 8.68 ± 2.4 % ID/g
  radiotracer uptake, Heart: 5.95 ± 0.7 % ID/g
  radiotracer uptake, Kidney: 4.11 ± 0.4 % ID/g
  radiotracer uptake, Lg. Int.: 1.38 ± 0.3 % ID/g
  radiotracer uptake, Liver: 12.47 ± 0.8 % ID/g
  radiotracer uptake, Lung: 5.09 ± 0.7 % ID/g
  radiotracer uptake, Muscle: 1.16 ± 0.2 % ID/g
  radiotracer uptake, Pancreas: 3.14 ± 0.3 % ID/g
  radiotracer uptake, Sm. Int.: 15.72 ± 3.2 % ID/g
  radiotracer uptake, Spleen: 5.72 ± 0.7 % ID/g
  radiotracer uptake, Stomach: 1.79 ± 0.8 % ID/g
[2]
  radiotracer uptake, Adrenal: 9.24 ± 3.6 % ID/g
  radiotracer uptake, Blood: 4.58 ± 1.9 % ID/g
  radiotracer uptake, Bone: 1.06 ± 0.4 % ID/g
  radiotracer uptake, Brain: 1.02 ± 0.3 % ID/g
  radiotracer uptake, Brown Fat: 4.58 ± 2.3 % ID/g
  radiotracer uptake, Heart: 3.86 ± 1.6 % ID/g
  radiotracer uptake, Kidney: 2.96 ± 0.9 % ID/g
  radiotracer uptake, Lg. Int.: 1.01 ± 0.5 % ID/g
  radiotracer uptake, Liver: 5.22 ± 2.7 % ID/g
  radiotracer uptake, Lung: 3.39 ± 1.6 % ID/g
  radiotracer uptake, Muscle: 0.84 ± 0.4 % ID/g
  radiotracer uptake, Pancreas: 1.52 ± 0.7 % ID/g
  radiotracer uptake, Sm. Int.: 30.24 ± 12.7 % ID/g
  radiotracer uptake, Spleen: 3.71 ± 1.5 % ID/g
  radiotracer uptake, Stomach: 0.71 ± 0.2 % ID/g
Mice given vehicle
  radiotracer uptake, Adrenal: 17.63 ± 2.9 % ID/g
  radiotracer uptake, Blood: 4.82 ± 0.4 % ID/g
  radiotracer uptake, Bone: 1.46 ± 0.5 % ID/g
  radiotracer uptake, Brain: 1.98 ± 0.1 % ID/g
  radiotracer uptake, Brown Fat: 9.52 ± 0.9 % ID/g
  radiotracer uptake, Heart: 7.06 ± 0.8 % ID/g
  radiotracer uptake, Kidney: 7.22 ± 0.8 % ID/g
  radiotracer uptake, Lg. Int.: 1.70 ± 0.3 % ID/g
  radiotracer uptake, Liver: 16.25 ± 0.8 % ID/g
  radiotracer uptake, Lung: 6.80 ± 0.7 % ID/g
  radiotracer uptake, Muscle: 1.85 ± 0.1 % ID/g
  radiotracer uptake, Pancreas: 4.64 ± 0.1 % ID/g
  radiotracer uptake, Sm. Int.: 28.72 ± 14.5 % ID/g
  radiotracer uptake, Spleen: 7.28 ± 1.8 % ID/g
  radiotracer uptake, Stomach: 2.62 ± 1.5 % ID/g
